# Key:
# [1] = test system: olfactory receptors in liver tissue; assay: OligoDNA microarray, liver tissue of HFD mice fed odor components; type: in vivo, mouse; conditions: supplemented to HFD-fed mouse 10 weeks
# Source text: (§1) The obesity-inducing control diet used in the test was high-fat diet (HFD: 40% fat calorie, 17 g lard+3% corn oil/100 g diet). Diets supplemented with an odor component had the same composition as HFD, except that each of various types of odor components (indol-3-carbinol, oleuropein, cedryl acetate, α-cedrene and piperine) having anti-obesity efficacy was contained in 0.02-0.05% concentration. Indo)-3-carbinol, oleuropein, cedryl acetate, a-cedrene and piperine were purchased from Sigma-Aldrich.
# (§2) After adding Trizol agent to visceral fat or liver tissue, the mixture was homogenized and centrifuged at 12,000×g for 10 min at 4° C. The supernatant was transferred to a new tube to remove fat layer. Then, 200 μl of chloroform was added to the tube, followed by vortexing. The same procedure was repeated twice and then the supernatant was transferred to a new tube, followed by addition of isopropanol and the supernatant at 1:1 ratio. The mixture was vigorously shaken 10 times and then incubated for 10 min at room temperature, followed by centrifugation at 12,000×g for 10 min at 4° C. to remove the supernatant. After adding 1 mL of 70% ethanol to the remaining pellet, it was centrifuged at 7,500×g for 5 min at 4° C. After removing the ethanol, the RNA pellet contained in the tube was dried for 5 min at 4° C. and dissolved in nuclease-free water. The RNA sample concentration was measured at a wavelength of 260 nm and 280 nm using a UV/VIS spectrophotometer (Beckman coulter, DU730) and the integrity of RNA sample was verified by agarose gel electrophoresis.
# (§3) DNA microarry analysis using RNAs of visceral fat and liver tissue was conducted by GENOCHECK (CO., LTD.). RNA samples were pooled from 10 mice in each experimental group and subjected to microarray experiments in triplicate for the test of reproducibility. NimbleGen Mouse Whole Oligo 12-plex chip used in this experiment was prepared by triplicating 42,576 genes using Mouse Genome Build 8 as database. In NimbleGen mouse Whole Oligo 12-plex chip, 137,090 spots excluded control group gene were spotted by 16 μm×16 μm size in 17.4 mm×13 mm size. 42,576 oligo included […] genes which are known their functions and 5,431 transcripts and EST sequences which are unknown their functions. 10-50 μg of total RNA was added in oligo-dT primer, reverse transcriptase, dNTP, Cy3-dUTP and Cy5-dUTP, and reverse-transcripted according to the kit manufacturer's recommendations. The resultant was purified using cartridge, dried and dissolved in hybridization buffer solution (30 μL). The microarray was placed in hybridization cassette, heated at 95-100° C. for 5 min, mixed independently to each of RNA labeled with Cy3 and Cy5, and hybridized at 45° C. for 18 hrs. The slide was washed twice in solution containing 1×SSC and 0.1% SDS for 5 min, washed in 1×SSC for 5 min and dried to analyze.
# (§4) The profile for olfactory receptors in which the expression was regulated by more than 2-fold change due to intake of odor components at each tissue was shown in Tables 5. As a result, it was determined that various types of odor components having anti-obesity efficacy regulated a plurality of olfactory receptors in peripheral tissues.
# [2] = test system: olfactory receptors in visceral fat and liver tissues; assay: OligoDNA microarray, visceral fat and liver tissues of HFD mice fed odor components (tissue not separated in text); type: in vivo; conditions: supplemented to mouse fed high-fat diet for 10 weeks
# Source text: as §1, §2, §3, §4
# [3] = test system: obesity and metabolic diseases-related genes in visceral fat tissue; assay: RT-PCR of obesity and metabolic diseases-related genes, visceral fat tissue; type: in vivo, mouse; conditions: odor component-supplemented group to the HFD control group
# Description: (§5) After adding 1 mL of Trizol agent (Invitrogen, USA) per 0.1 g of visceral fat or liver tissues, the mixture was homogenized and centrifuged at 12,000×g for 10 min at 4° C. The supernatant was transferred to a new tube and 200 μl of chloroform was added to the tube, followed by vortexing. The same procedure was repeated twice and then the supernatant was transferred to a new tube, followed by addition of isopropanol and the supernatant at 1:1 ratio. The mixture was vigorously shaken 10 times and then incubated for 10 min at room temperature, followed by centrifugation at 12,000×g for 10 min at 4° C. to remove the supernatant. After adding 1 mL of 70% ethanol to the remaining pellet, it was centrifuged at 7,500×g for 5 min at 4° C. After removing the ethanol, the RNA pellet contained in the tube was dried for 5 min at 4° C. and dissolved in nuclease-free water. The RNA sample concentration was measured at a wavelength of 260 nm and 280 nm using a UV/VIS spectrophotometer (Beckman coulter, DU730) and the integrity of RNA sample was verified by agarose gel electrophoresis. The RNA sample obtained from the visceral fat or liver tissues was trasnscribed using oligo dT primer and reverse transcriptase (GIBCO BRL, Gaithersburg, Md., USA) to synthesize cDNA. The PCR amplification was performed using the cDNA as templates and primers complementary to cDNA [NT] flanking sequence. 1 μl of the amplified products were resolved on agarose gel electrophoresis to verify DNA band.
# [4] = test system: obesity and metabolic diseases-related genes in liver tissue; assay: RT-PCR of obesity and metabolic diseases-related genes, liver tissue; type: in vivo, mouse; conditions: odor component-supplemented group to the HFD control group
# Description: as §5
# [5] = test system: HSL (hormone sensitive lipase); assay: Western blotting, protein phosphorylation of HSL; type: in vivo, mouse; conditions: odor component-supplemented group to the HFD control group
# Description: (§6) A certain amount of visceral fat or liver tissues in mortar was homogenized with liquid nitrogen and cell lysis buffer. The mixture was transferred to a new tube, followed by vortexing. After centrifugation at 13,000×g for 20 min at 4° C., the middle layer of the tube was obtained and proteins were quantified by Bradford method. 50 μg of protein was electrophorized to SDS polyacrylamide gel, followed by electroblotting to PVDF hyper film. The protein was reacted using an appropriate antibody for the protein and detected by ECL, whereby insulin resistance, adipocyte differentiation, lipid metabolism or energy consumption-related mechanism of phytochemical components was investigated in the protein level.
# (§7) In order to verify this, protein phosphorylations of HSL (hormone sensitive lipase), CREB (cAMP-responsive element binding protein) and AKT (v-akt murine thymoma viral oncogene) were evaluated by western blotting analysis.
# [6] = test system: CREB (cAMP-responsive element binding protein); assay: Western blotting, protein phosphorylation of CREB; type: in vivo, mouse; conditions: odor component-supplemented group to the HFD control group
# Description: as §6, §7
# [7] = test system: AKT (v-akt murine thymoma viral oncogene); assay: Western blotting, protein phosphorylation of AKT; type: in vivo, mouse; conditions: odor component-supplemented group to the HFD control group
# Description: as §6, §7
smiles,measurement,setting,value
O=C(/C=C/C=C/c1ccc2c(c1)OCO2)N1CCCCC1 [piperine],Olfr38 expression fold change to HFD group,[1],3.93
same,Olfr77 expression fold change to HFD group,[1],0.42
same,Olfr520 expression fold change to HFD group,[1],2.24
same,Olfr878 expression fold change to HFD group,[1],5.56
same,Olfr1462 expression fold change to HFD group,[1],0.49
same,expression of olfactory receptor 38 increased,[2],more than 2 fold change
same,expression of olfactory receptor 77 decreased,[2],more than 2 fold change
same,expression of olfactory receptor 520 increased,[2],more than 2 fold change
same,expression of olfactory receptor 878 increased,[2],more than 2 fold change
same,expression of olfactory receptor 1462 decreased,[2],more than 2 fold change
same,"C/EBPα gene expression, decrease (change rate)",[3],35% decrease
same,"CPT1 gene expression, increase (change rate)",[3],75% increase^
same,"FAS gene expression, decrease (change rate)",[3],52% decrease
same,"IL-6 gene expression, decrease (change rate)",[3],83% decrease
same,"PGC1α gene expression, increase (change rate)",[3],324% increase ^
same,"PPARγ2 gene expression, decrease (change rate)",[3],30% decrease
same,"SIRT1 gene expression, increase (change rate)",[3],36% increase^
same,"TNFα gene expression, decrease (change rate)",[3],75% decrease
same,"UCP1 gene expression, increase (change rate)",[3],905% increase ^
same,"UCP3 gene expression, increase (change rate)",[3],75% increase^
same,"aP2 gene expression, decrease (change rate)",[3],60% decrease
same,"C/EBPα gene expression, decrease (change rate)",[4],8% decrease
same,"CPT1 gene expression, increase (change rate)",[4],44% increase^
same,"FAS gene expression, decrease (change rate)",[4],67% decrease
same,"IL-6 gene expression, decrease (change rate)",[4],71% decrease
same,"PPARγ2 gene expression, decrease (change rate)",[4],44% decrease
same,"TNFα gene expression, decrease (change rate)",[4],60% decrease
same,"aP2 gene expression, decrease (change rate)",[4],55% decrease
same,"HSL phosphorylation, increase (change rate)",[5],45% increase
same,"CREB phosphorylation, increase (change rate)",[6],29% increase
same,"AKT phosphorylation, increase (change rate)",[7],47% increase

# Source: patent US10167507B2, “Metabolic diseases-related odorant receptor genes and use thereof” (INDUSTRY-ACADEMIC COOPERATION FOUNDATION, YONSEI UNIVERSITY, priority 2010, dated 2019)
